According to ChEMBL document CHEMBL1141597, “2-Alkyl-4-aryl-pyrimidine fused heterocycles as selective 5-HT2A antagonists” (Bioorg Med Chem Lett, 2008):
Activity calls are given as the source filed them. The rule behind the calls is not given here.

Assays:
[1] = molecular target: T1, 5-hydroxytryptamine receptor 2A (Homo sapiens, UniProt P28223); test: Displacement of [3H]ketanserin from human recombinant 5HT2A receptor expressed in mouse NIH3T3 cells; type: cell-based
[2] = molecular target: T2, 5-hydroxytryptamine receptor 2B (Homo sapiens, UniProt P41595); test: Displacement of [3H]mesulergine from human recombinant 5HT2B receptor expressed in CHO cells; type: cell-based
[3] = molecular target: T3, 5-hydroxytryptamine receptor 2C (Homo sapiens, UniProt P28335); test: Displacement of [3H]mesulergine from human recombinant 5HT2C receptor expressed in CHO cells; type: cell-based
T3 sequence (P28335 whole entry): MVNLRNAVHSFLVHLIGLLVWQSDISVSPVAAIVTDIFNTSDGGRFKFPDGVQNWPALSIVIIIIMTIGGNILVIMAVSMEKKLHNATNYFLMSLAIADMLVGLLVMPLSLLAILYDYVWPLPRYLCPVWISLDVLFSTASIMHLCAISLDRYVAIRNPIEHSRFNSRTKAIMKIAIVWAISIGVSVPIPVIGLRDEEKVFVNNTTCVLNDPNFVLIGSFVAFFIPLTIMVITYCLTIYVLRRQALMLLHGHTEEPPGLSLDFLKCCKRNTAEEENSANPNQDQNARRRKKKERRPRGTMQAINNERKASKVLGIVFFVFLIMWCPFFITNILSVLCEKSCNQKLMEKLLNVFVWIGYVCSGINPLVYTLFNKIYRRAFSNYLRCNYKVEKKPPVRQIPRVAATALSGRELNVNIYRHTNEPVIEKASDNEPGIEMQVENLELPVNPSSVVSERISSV

[4] = molecular target: T2, 5-hydroxytryptamine receptor 2B; test: Antagonist activity at human recombinant 5HT2B receptor expressed in CHO cells assessed as increase in calcium levels; type: functional, cell-based
[5] = molecular target: T1, 5-hydroxytryptamine receptor 2A; settings: NIH3T3
Description: Antagonist activity at human recombinant 5HT2A receptor expressed in mouse NIH3T3 cells assessed as increase in calcium levels

[6] = molecular target: T3, 5-hydroxytryptamine receptor 2C; test: Binding affinity at 5HT2C receptor
[7] = molecular target: T1, 5-hydroxytryptamine receptor 2A; test: Binding affinity at 5HT2A receptor
[8] = molecular target: T2, 5-hydroxytryptamine receptor 2B; test: Binding affinity at 5HT2B receptor

T2 sequence (P41595 whole entry): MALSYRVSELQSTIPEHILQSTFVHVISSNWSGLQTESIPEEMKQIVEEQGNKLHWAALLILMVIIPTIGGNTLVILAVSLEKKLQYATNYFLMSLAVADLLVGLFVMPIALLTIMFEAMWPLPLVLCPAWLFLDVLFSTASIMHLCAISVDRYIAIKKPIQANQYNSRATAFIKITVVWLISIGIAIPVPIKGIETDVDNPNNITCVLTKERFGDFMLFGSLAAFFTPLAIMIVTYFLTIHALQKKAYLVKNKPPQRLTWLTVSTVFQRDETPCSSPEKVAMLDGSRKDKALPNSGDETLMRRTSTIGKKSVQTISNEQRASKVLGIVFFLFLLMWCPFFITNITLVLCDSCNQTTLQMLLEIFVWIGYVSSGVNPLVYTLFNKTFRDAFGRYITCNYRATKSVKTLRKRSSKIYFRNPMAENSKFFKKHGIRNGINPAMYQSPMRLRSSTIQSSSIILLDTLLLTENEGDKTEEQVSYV
T1 sequence (P28223 whole entry): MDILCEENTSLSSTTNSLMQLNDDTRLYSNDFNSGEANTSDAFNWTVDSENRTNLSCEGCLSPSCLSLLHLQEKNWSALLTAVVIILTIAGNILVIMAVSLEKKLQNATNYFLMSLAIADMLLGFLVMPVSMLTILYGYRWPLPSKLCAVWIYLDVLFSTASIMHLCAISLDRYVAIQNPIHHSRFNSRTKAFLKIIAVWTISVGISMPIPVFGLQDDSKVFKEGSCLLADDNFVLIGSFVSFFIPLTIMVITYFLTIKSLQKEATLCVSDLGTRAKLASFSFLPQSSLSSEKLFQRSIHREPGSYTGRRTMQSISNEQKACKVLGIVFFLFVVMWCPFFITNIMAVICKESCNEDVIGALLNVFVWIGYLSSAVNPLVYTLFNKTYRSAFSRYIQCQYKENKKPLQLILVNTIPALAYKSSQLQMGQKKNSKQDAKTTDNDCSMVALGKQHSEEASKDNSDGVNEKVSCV

Structure (SMILES) | Ki [1] | Ki [2] | Ki [3] | further results
Fc1ccc(-c2nc(Cc3ccccc3)nc3c2CCNC3)cc1 | 9 nM | 310 nM | – | –
Fc1ccc(-c2nc(-c3ccccc3)nc3c2CNCC3)cc1 | 50 nM | – | – | –
FC(F)(F)c1ccc(-c2nc(Cc3ccccc3)nc3c2CCNCC3)cc1 | 0.8 nM | – | – | –
Fc1ccc(-c2nc(Cc3ccccc3)nc3c2CCCNC3)cc1 | 8.8 nM | – | 150 nM | –
Fc1ccc(Cc2nc3c(c(-c4ccc(F)cc4)n2)CCNCC3)cc1 | 0.7 nM | – | – | Activity [4]: inactive; pKb [5]: 8.2
Cc1ccc(-c2nc(C3CCCC3)nc3c2CCNCC3)cc1 | – | – | 23 nM | –
Fc1ccc(-c2nc(C3CCCC3)nc3c2CNCC3)cc1 | 2.2 nM | 220 nM | 110 nM | Activity [4]: inactive; pKb [5]: 8.1
Fc1ccc(-c2nc(C3CCC3)nc3c2CNCC3)cc1 | 11 nM | 210 nM | 410 nM | –
Cc1ccc(-c2nc(Cc3ccccc3)nc3c2CCNCC3)cc1 | 0.4 nM | – | 15 nM | –
COc1ccc(-c2nc(C3CCCC3)nc3c2CCNCC3)cc1 | 11 nM | 4.8 nM | 120 nM | –
Cc1nc2c(c(-c3ccc(Cl)cc3)n1)CCNCC2 | 1200 nM | 270 nM | 5000 nM | –
Fc1ccc(Cc2nc3c(c(-c4ccc(F)cc4)n2)CNCC3)cc1 | 13 nM | – | – | Activity [4]: inactive; pKb [5]: 7.1
Fc1ccc(-c2nc(Cc3ccccc3)nc3c2CNCC3)cc1 | 20 nM | 2500 nM | 400 nM | –
Cc1nc2n(c(=O)c1CCN1CCC(c3noc4cc(F)ccc34)CC1)CCCC2 | – | – | – | Activity [4]: inactive
CCN(CC)c1nc2c(c(-c3ccc(C)cc3)n1)CNCC2 | – | – | – | Ki [6]: 300 nM; Ki [7]: 20 nM; Ki [8]: 70 nM
N#Cc1ccc(-c2nc(C3CCCC3)nc3c2CCNCC3)cc1 | 34 nM | 20 nM | 460 nM | –
Fc1ccc(-c2nc(C3CCCC3)nc3c2CCNCC3)cc1 | 13 nM | – | – | –
CC(C)(C)c1nc2c(c(-c3ccc(F)cc3)n1)CNCC2 | 5 nM | – | 100 nM | –
Fc1ccc(-c2nc(Cc3ccccc3)nc3c2CNCCC3)cc1 | – | 10000 nM | 5000 nM | –
CC(C)c1nc2c(c(-c3ccc(F)cc3)n1)CCNCC2 | 4 nM | – | – | –
Cc1nc2sccn2c(=O)c1CCN1CCC(=C(c2ccc(F)cc2)c2ccc(F)cc2)CC1 | – | – | – | Activity [4]: inactive
Fc1ccc(-c2nc(Cc3ccccc3)nc3c2CCNCC3)cc1 | 0.6 nM | – | – | –
Fc1ccc(-c2nc(C3CC3)nc3c2CNCC3)cc1 | 40 nM | – | 5000 nM | –
CN(C)CCO/N=C(/C=C/c1ccc(O)cc1)c1ccccc1F | – | – | – | Activity [4]: inactive
COc1cccc(C(O)C2CCN(CCc3ccc(F)cc3)CC2)c1OC (single isomer, unassigned) | – | – | – | Activity [4]: inactive
